# Reference: ChEMBL document CHEMBL3585266, “New matrix metalloproteinase inhibitors based on γ-fluorinated α-aminocarboxylic and α-aminohydroxamic acids” (Bioorg Med Chem, 2015)
# Target: 72 kDa type IV collagenase (Homo sapiens, UniProt P08253)
# Sequence (P08253 whole entry): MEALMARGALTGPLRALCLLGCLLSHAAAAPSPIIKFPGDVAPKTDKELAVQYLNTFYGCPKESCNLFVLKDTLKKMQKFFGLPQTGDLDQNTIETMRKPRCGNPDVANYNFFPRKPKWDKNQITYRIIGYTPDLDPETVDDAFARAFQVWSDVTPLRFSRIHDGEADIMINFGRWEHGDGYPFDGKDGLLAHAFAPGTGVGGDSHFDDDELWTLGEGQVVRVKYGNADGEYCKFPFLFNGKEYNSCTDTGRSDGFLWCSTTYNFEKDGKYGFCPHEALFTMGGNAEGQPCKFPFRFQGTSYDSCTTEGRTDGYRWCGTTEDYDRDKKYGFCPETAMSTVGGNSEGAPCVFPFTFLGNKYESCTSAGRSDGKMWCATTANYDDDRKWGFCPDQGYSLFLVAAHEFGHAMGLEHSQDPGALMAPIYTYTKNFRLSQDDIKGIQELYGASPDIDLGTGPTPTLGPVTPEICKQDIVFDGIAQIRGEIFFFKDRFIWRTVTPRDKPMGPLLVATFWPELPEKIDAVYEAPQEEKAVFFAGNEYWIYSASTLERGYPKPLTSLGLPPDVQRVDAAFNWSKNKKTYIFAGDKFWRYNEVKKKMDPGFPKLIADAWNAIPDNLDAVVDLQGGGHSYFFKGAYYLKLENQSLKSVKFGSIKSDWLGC
# Description: Inhibition of human active MMP2 using (7-methoxycoumarin-4-yl) acetyl pro-Leu-Gly-Leu-[3-(2,4-dinitrophenyl)-L-2,3-diamino-propionyl]-Ala-Arg-NH2 fluorogenic substrate assessed as fluorescent product release
row,SMILES,IC50
1,C=C(F)C[C@@H](C(=O)O)N(Cc1cccnc1)S(=O)(=O)c1ccc(OC)cc1,> 100000 nM
2,CC[C@H](C(=O)O)N(Cc1cccnc1)S(=O)(=O)c1ccc(OC)cc1,10300 nM
3,COc1ccc(S(=O)(=O)N(Cc2cccnc2)[C@H](CCF)C(=O)O)cc1,> 100000 nM
4,C=C(F)C[C@@H](C(=O)NO)N(Cc1cccnc1)S(=O)(=O)c1ccc(OC)cc1,7.2 nM
5,COc1ccc(S(=O)(=O)N(Cc2cccnc2)[C@H](CCF)C(=O)NO)cc1,6.4 nM
6,COc1ccc(S(=O)(=O)N(Cc2cccnc2)[C@@H](CCF)C(=O)O)cc1,34700 nM
7,CC[C@@H](C(=O)O)N(Cc1cccnc1)S(=O)(=O)c1ccc(OC)cc1,> 100000 nM
8,C=C(F)C[C@H](C(=O)NO)N(Cc1cccnc1)S(=O)(=O)c1ccc(OC)cc1,9.3 nM
9,C=C(F)C[C@H](C(=O)O)N(Cc1cccnc1)S(=O)(=O)c1ccc(OC)cc1,35700 nM

# Other lines, results leading:
row,IC50,SMILES
1,3.9 nM,C=CC[C@H](C(=O)NO)N(Cc1cccnc1)S(=O)(=O)c1ccc(OC)cc1
2,2100 nM,C=CC[C@H](C(=O)O)N(Cc1cccnc1)S(=O)(=O)c1ccc(OC)cc1
3,6.3 nM,C=CC[C@@H](C(=O)NO)N(Cc1cccnc1)S(=O)(=O)c1ccc(OC)cc1
4,2 nM,CC[C@H](C(=O)NO)N(Cc1cccnc1)S(=O)(=O)c1ccc(OC)cc1
5,1400 nM,CC[C@@H](C(=O)NO)N(Cc1cccnc1)S(=O)(=O)c1ccc(OC)cc1
6,> 100000 nM,C=CC[C@@H](C(=O)O)N(Cc1cccnc1)S(=O)(=O)c1ccc(OC)cc1

# Target: Matrix metalloproteinase-9 (Homo sapiens, UniProt P14780)
# Sequence (P14780 whole entry): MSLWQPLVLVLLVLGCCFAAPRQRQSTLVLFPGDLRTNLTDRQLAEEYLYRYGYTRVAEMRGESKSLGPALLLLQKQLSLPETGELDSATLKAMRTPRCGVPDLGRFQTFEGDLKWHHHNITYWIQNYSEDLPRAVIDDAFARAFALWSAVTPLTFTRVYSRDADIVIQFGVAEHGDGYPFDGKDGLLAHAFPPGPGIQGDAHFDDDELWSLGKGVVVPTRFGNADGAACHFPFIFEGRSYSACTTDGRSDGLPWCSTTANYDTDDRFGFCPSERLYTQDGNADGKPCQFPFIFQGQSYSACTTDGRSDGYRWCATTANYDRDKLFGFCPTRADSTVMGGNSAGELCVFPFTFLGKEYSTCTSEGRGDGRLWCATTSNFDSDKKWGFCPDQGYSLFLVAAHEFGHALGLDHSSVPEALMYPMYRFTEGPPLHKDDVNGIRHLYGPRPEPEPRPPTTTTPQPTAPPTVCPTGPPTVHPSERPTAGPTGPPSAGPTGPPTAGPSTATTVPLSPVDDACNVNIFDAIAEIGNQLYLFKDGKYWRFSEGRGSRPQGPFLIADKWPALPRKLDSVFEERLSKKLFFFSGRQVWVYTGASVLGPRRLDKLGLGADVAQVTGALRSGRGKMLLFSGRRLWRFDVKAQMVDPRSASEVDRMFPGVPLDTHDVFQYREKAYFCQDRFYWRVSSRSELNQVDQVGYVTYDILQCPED
# Experiment: Inhibition of human active MMP9 using (7-methoxycoumarin-4-yl) acetyl pro-Leu-Gly-Leu-[3-(2,4-dinitrophenyl)-L-2,3-diamino-propionyl]-Ala-Arg-NH2 fluorogenic substrate assessed as fluorescent product release
row,SMILES,IC50
1,C=C(F)C[C@@H](C(=O)O)N(Cc1cccnc1)S(=O)(=O)c1ccc(OC)cc1,> 100000 nM
2,CC[C@H](C(=O)O)N(Cc1cccnc1)S(=O)(=O)c1ccc(OC)cc1,8800 nM
3,COc1ccc(S(=O)(=O)N(Cc2cccnc2)[C@H](CCF)C(=O)O)cc1,> 100000 nM
4,C=C(F)C[C@@H](C(=O)NO)N(Cc1cccnc1)S(=O)(=O)c1ccc(OC)cc1,4.9 nM
5,COc1ccc(S(=O)(=O)N(Cc2cccnc2)[C@H](CCF)C(=O)NO)cc1,12.3 nM
6,COc1ccc(S(=O)(=O)N(Cc2cccnc2)[C@@H](CCF)C(=O)O)cc1,> 100000 nM
7,CC[C@@H](C(=O)O)N(Cc1cccnc1)S(=O)(=O)c1ccc(OC)cc1,> 100000 nM
8,C=C(F)C[C@H](C(=O)NO)N(Cc1cccnc1)S(=O)(=O)c1ccc(OC)cc1,8.3 nM
9,C=C(F)C[C@H](C(=O)O)N(Cc1cccnc1)S(=O)(=O)c1ccc(OC)cc1,> 100000 nM

# Continued, values first:
row,IC50,SMILES
1,0.54 nM,C=CC[C@H](C(=O)NO)N(Cc1cccnc1)S(=O)(=O)c1ccc(OC)cc1
2,1700 nM,C=CC[C@H](C(=O)O)N(Cc1cccnc1)S(=O)(=O)c1ccc(OC)cc1
3,6.4 nM,C=CC[C@@H](C(=O)NO)N(Cc1cccnc1)S(=O)(=O)c1ccc(OC)cc1
4,4.6 nM,CC[C@H](C(=O)NO)N(Cc1cccnc1)S(=O)(=O)c1ccc(OC)cc1
5,700 nM,CC[C@@H](C(=O)NO)N(Cc1cccnc1)S(=O)(=O)c1ccc(OC)cc1
6,> 100000 nM,C=CC[C@@H](C(=O)O)N(Cc1cccnc1)S(=O)(=O)c1ccc(OC)cc1
